Data taken from article PMC8513901, “Cooperative stabilisation of 14-3-3σ protein–protein interactions via covalent protein modification” (Chemical Science, 2021).

Target: T1, 14-3-3σ (Homo sapiens, UniProt P31947)
T1 construct: gene SFN; with ERα phospho-peptide (588AEGFPApTV595 in the crystal)
T1 sequence (P31947 1-248): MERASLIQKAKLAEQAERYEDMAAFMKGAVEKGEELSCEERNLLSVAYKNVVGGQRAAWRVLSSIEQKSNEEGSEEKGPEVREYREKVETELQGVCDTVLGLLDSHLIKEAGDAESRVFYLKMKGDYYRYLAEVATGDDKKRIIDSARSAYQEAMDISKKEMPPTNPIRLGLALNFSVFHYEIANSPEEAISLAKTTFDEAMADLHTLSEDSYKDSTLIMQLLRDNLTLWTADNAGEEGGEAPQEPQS
Test: crystal structure with ERα phospho-peptide and […]; FP dose-response and ITC stabilisation
Type: binding

Question: For `C=CC(C)(C)OC[C@H]1O[C@H](O[C@@H]2C3=C([C@H](C)COC(C)=O)C[C@H](O)[C@]3(C)/C=C3/[C@@H](COC)CC[C@H]3[C@@H](C)[C@H]2O)[C@H](O)[C@@H](OC(C)=O)[C@@H]1O` [compound 1, fusicoccin A], which EC50 is on record?
Answer: 880 nM
